{"source": "patent US11939302B2", "about": "“Compounds for the treatment of Alzheimer's disease” (The Governors of the University of Alberta, priority 2020, dated 2024)", "key": {"[1]": {"system": "long-term potentiation", "settings": "hippocampus of TgCRND8 mice; Kimura et al., 2012; 2016; cited from earlier work"}, "[2]": {"system": "Aβ toxicity", "settings": "Jhamandas et al., 2004; 2011; 2012; cited from earlier work"}, "[3]": {"system": "N2a neuronal cells", "assay": "MTT cell death assay, amyloid beta toxicity", "type": "cell-based, mouse", "settings": "N2a cell line; Aβ1-42 10 μM, soluble oligomeric; 24-48 h; FIG. 4", "method": "MTT Cell Death Assay. The N2a (mouse) and SK-N-SH (human) neuronal cells were seeded to 5000 cells/well in a 96-well plate in DMEM medium, 10% FBS and incubated overnight. Cells in culture medium were incubated either with or without the assay compounds and Aβ1-42, 10 μM for 24-48 h. At the end of treatment, 20 μL of 5 mg/mL 3-(4,5-dimethylthiazol-2-yl)-2,5-diphenyltetrazolium bromide (MTT, Sigma) was added to each well and incubated at 37° C. for 3 h. Medium was removed, 100 μL of MTT solvent (isopropanol with 4 mM HCl) was added to each well, and the plates were incubated for 30 min at room temperature on a rotating shaker. Plates were analyzed on a microplate reader at a 562 nm wavelength."}, "[4]": {"molecular_target": "T1, amylin receptor subtype 3 (AMY3) (Homo sapiens, UniProt O60896+P30988)", "T1 construct": "expressed in transfected cells", "T1 sequence (P30988 25-474)": "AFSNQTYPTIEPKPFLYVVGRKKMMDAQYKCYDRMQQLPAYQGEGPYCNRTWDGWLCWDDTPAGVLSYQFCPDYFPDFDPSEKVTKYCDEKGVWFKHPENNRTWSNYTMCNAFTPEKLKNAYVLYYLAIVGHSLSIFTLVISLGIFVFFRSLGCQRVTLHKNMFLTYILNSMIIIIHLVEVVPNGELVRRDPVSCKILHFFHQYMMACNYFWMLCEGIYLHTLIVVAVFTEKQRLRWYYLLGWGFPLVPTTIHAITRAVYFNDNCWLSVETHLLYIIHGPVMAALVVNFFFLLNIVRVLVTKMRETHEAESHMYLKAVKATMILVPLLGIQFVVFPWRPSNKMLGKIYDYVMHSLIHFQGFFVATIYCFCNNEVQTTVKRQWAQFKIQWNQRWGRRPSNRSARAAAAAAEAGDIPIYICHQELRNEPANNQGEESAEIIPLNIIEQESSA", "T1 sequence (O60896 24-148 partner)": "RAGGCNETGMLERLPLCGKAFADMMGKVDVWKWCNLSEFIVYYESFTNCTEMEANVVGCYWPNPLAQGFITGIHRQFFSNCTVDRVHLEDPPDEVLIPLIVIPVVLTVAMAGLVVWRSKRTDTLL", "assay": "Kinetic intracellular Ca2+ changes (Fluo-8L-AM) in AMY3-HEK293 cells", "type": "cell-based", "settings": "human amylin 0.5 μM; compound 0.01-10 μM range; FIG. 3", "method": "Kinetic Intracellular Ca^2+ Changes. Dynamic changes of the free cytosolic Ca2+ concentration were monitored with microplate reader. For monitor amylin induced intracellular Ca^2+, AMY3-HEK293 cells were plated on 96 well cell culture plates and incubated at 37° C. for 12-36 h with DMEM, 10% FBS, and Zeocin medium. For Ca^2+ changes, the AMY3-HEK293 cells were washed twice with assay solution which ion content similar to extracellular brain fluid thus containing the following: 130 mM NaCl, 4 mM KCl, 1 mM MgCl2, 2 mM CaCl2), 10 mM HEPES, and 10 mM glucose (pH 7.35). Then incubated with the membrane-permeant fluorescent Ca^2+-sensitive dye Fluo-8L-AM (AAT Bioquest, Inc., Sunnyvale, CA), with 5 μM of the agent for 40 min at room temperature (20-23° C.) in assay solution. The test compounds were added in various concentrations of 0.01, 0.1, 1, and 10 μM for 10 min and kinetic measured the fluorescent intensity with Varioskan-LUX microplate reader (Thermo Fisher Scientific, Waltham, MA). Human amylin were dissolved in sterile bidistilled water at 1 mM stock solution and incubated at room temperature for 10 min before dilution with assay solution for use at a final concentration of 0.5 μM. Fluorescent intensity was measured at excitation/emission wavelength of 488/514 nm, excitation bandwidth 12 nm, kinetic interval 1 min, and measure time at 100 ms. […]"}, "[5]": {"molecular_target": "T1, amylin receptor subtype 3 (AMY3)", "assay": "cAMP ELISA in AMY3-HEK cells, reduction of human amylin induced cAMP", "type": "cell-based", "settings": "FIG. 2; for Mode of action indicated by cAMP assays in amylin receptor subtype 3 expressing cells: AMY3 expressing cells; for Human amylin generation of cAMP in the presence of compound: human amylin 0.1 μM, compound 10 μM, AMY3-HEK cells", "method": "Compounds described herein were screened using a cAMP (cyclic adenosine monophosphate) assay in amylin receptor subtype 3 expressing cells (See FIG. 1).\nCell Cultures. Amylin receptor subtypes (AMY3-HEK cells) stably expressed in human embryonic kidney (HEK293) cell-line were generated and characterized as described in a previous published article (Fu et al., J. Biol. Chem. 2012). The AMY3-HEK cells were grown in a 5% CO2 humidified incubator at 37° C. with DMEM, 10% FBS, and 100 μg/mL Zeocin medium.\nELISA (enzyme-linked immunosorbent assay). Cellular cAMP levels were measured using a parameter cyclic AMP assay kit (R&D Systems) according to the manufacturer's instructions. Briefly, AMY3-HEK cells were plated on 24-well plates overnight. These cells were then incubated with or without the assay compounds and hAmylin for 5 min. The cells were lysed with lysis buffer provided in the assay kit. Standard curves were plotted using the cAMP standards provided in the ELISA kits. All samples were analyzed in duplicate. The plate was measured at 450 nm. Data was plotted, and non-linear regression was fitted with four parameters using Prism software (GraphPad Software, La Jolla, CA).\nCompounds were assayed based on potency of reduction at 10 μM of 0.1 μM human Amylin (hAmylin) induced cAMP increases."}, "[6]": {"system": "hippocampal long term potentiation (LTP)", "assay": "Hippocampal long term potentiation (LTP) electrophysiology in brain slices", "set-up": "species or system mice", "settings": "for LTP levels in hippocampal slices from transgenic AD mice (TgCRND8), chronically depressed LTP: compared with age matched wild type control (WT_Cont); for Effect on LTP from wild type control (WT_Cont) mice: WT_Cont slices; for Amyloid beta (Aβ)-induced depression of LTP / Human amylin-induced depression of LTP: compound 1 μM, brain hippocampal slices", "description": "Hippocampal long term potentiation (LTP) electrophysiology experiments: an in vitro cellular surrogate for memory. Brains were quickly removed from mice following decapitation, placed in a cold artificial cerebral spinal fluid (aCSF) on a vibratome chamber and transverse sections cut through the hippocampus. The aCSF contained (in mM) 124 NaCl, 3 KCl, 2.4 CaCl2), 2 MgCl2, 1.25 NaH2PO4, 26 NaHCO3 and 10 D-glucose, and was equilibrated with 95% 02 and 5% CO2. Hippocampal slices ([…]) were maintained in aCSF-filled holding chamber at room temperature for at least 1 hour and individually transferred to the submerged glass bottom recording chamber, which was constantly perfused with aCSF (2 mL/min) at 30° C. Field excitatory postsynaptic potential (fEPSP) was recorded with a metallic (Pt/Ir) electrode (FHC, Bowdoin, ME) from the stratum radiatum layer of Cornu ammonis 1 region of the hippocampus (CA1) area, and the Schaffer collateral afferents were stimulated with 100-μs test pulses via a bipolar cluster electrode (FHC) (Kimura et al., 2012, Kimura et al. 2016). To evaluate basal synaptic transmission, we applied different stimulation strengths (75 μA to 300 μA in steps of 25 μA) and plotted the amplitudes of presynaptic fiber volleys versus the corresponding fEPSP slopes to compare the slope of input/output (I/O) curves of fEPSP. For long-term potentiation (LTP) experiments, the stimulus strength was set to elicit 40-50% of the maximum fEPSP amplitude and test pulses were delivered to Schaffer collaterals once every 30 seconds. LTP was induced by 3-theta-burst stimulation (3-TBS) protocol (each burst consisted of 4 pulses at 100 Hz with a 200-ms inter-burst interval). Before 3-TBS or drug application, the responses were monitored for at least 10 minutes to ensure a stable baseline of fEPSP. […] Results were from various treatment groups were plotted as histograms with means±standard error (SE). Statistical analysis was performed using one-way ANOVA followed by post-hoc Tukey's honestly significant difference (HSD) test (for multiple comparisons) or Student's t test (for pair-wise comparisons). All drugs and chemicals were applied directly to the slice via bath perfusion, which allowed for a complete exchange of the perfusate in less than a minute and a half."}}, "note": "No end group written: not given here.", "data": [{"molecule": "AC253: peptide antagonist of the amylin receptor, 24 amino acids, SEQ ID NO: 1 (Ac-LGRLSQELHRLQTYPRTNTGSNTY)", "values": [{"measurement": "Aβ- or human amylin-induced depression of long-term potentiation", "setting": "[1]", "result": "reverse impairment"}, {"measurement": "Neuroprotection against Aβ toxicity", "setting": "[2]", "result": "neuroprotective"}]}, {"molecule": "O=C1CN(C(=O)CCO)c2ccccc2N1", "note": "[Compound 10, 4-(3-hydroxypropanoyl)-3,4-dihydroquinoxalin-2(1H)-one]", "values": [{"measurement": "Cytoprotection against amyloid beta (Abeta) toxicity, cell viability by MTT", "setting": "[3]", "result": "cytoprotective"}, {"measurement": "Elevations in intracellular calcium evoked by human amylin", "setting": "[4]", "result": "attenuated"}, {"measurement": "Mode of action indicated by cAMP assays in amylin receptor subtype 3 expressing cells", "setting": "[5]", "result": "amylin receptor antagonists"}, {"measurement": "Human amylin generation of cAMP in the presence of compound", "setting": "[5]", "result": "attenuated"}, {"measurement": "LTP levels in hippocampal slices from transgenic AD mice (TgCRND8), chronically depressed LTP", "setting": "[6]", "result": "increased LTP levels to levels observed in WT_Cont mice"}, {"measurement": "Effect on LTP from wild type control (WT_Cont) mice", "setting": "[6]", "result": "no effects"}, {"measurement": "Amyloid beta (Aβ)-induced depression of LTP", "setting": "[6]", "result": "blocked"}, {"measurement": "Human amylin-induced depression of LTP", "setting": "[6]", "result": "blocked"}]}, {"molecule": "O=c1[nH]c2ccccc2n(CCCO)c1=O", "note": "[Compound 1, 1-(3-hydroxypropyl)-1,4-dihydroquinoxaline-2,3-dione]", "values": [{"measurement": "Cytoprotection against amyloid beta (Abeta) toxicity, cell viability by MTT", "setting": "[3]", "result": "cytoprotective"}, {"measurement": "Elevations in intracellular calcium evoked by human amylin", "setting": "[4]", "result": "attenuated"}, {"measurement": "Mode of action indicated by cAMP assays in amylin receptor subtype 3 expressing cells", "setting": "[5]", "result": "amylin receptor antagonists"}, {"measurement": "Human amylin generation of cAMP in the presence of compound", "setting": "[5]", "result": "attenuated"}, {"measurement": "LTP levels in hippocampal slices from transgenic AD mice (TgCRND8), chronically depressed LTP", "setting": "[6]", "result": "increased LTP levels"}, {"measurement": "Effect on LTP from wild type control (WT_Cont) mice", "setting": "[6]", "result": "no effects"}, {"measurement": "Amyloid beta (Aβ)-induced depression of LTP", "setting": "[6]", "result": "blocked"}, {"measurement": "Human amylin-induced depression of LTP", "setting": "[6]", "result": "blocked"}]}]}
